Source: US8236490B2, “Screening method for compounds that reduce ER stress” (EM Biotecnologia S.A., priority 2007, dated 2012)

Tested on: DGI-TAUP301L cells (ER stress induced by mutant TAU-P301L protein)
Assay: ER stress reporter (KAR2 UPRE-GFP) screening assay in DGI-TAUP301L yeast cells; fluorescence normalised to cell density
Type: cell-based, Saccharomyces cerevisiae
Conditions: 2% galactose, 2 days at 30° C.
Protocol: Screening was conducted with a DGI-TAUP301L yeast cell expressing the mutant TAU-P301L protein under the control of GAL1 promoter and containing the ER stress sensor reporter plasmid with GFP as reporter, described above in the “Construction of the ER sensor reporter plasmid” section. […] The resulting fluorescent signal was normalised to cell density and the normalised fluorescence was used as a direct measure of ER stress level in the cells.
A commercial library containing 50 080 small molecules was screened along with 5 dipeptide molecules from an academic collaboration and 208 extracts from a proprietary natural extract collection. Active compounds, with the potential to modulate the deleterious effects of TAU-P301L expression, were identified by their ability to decrease normalised fluorescence, without influencing growth. Growth was determined by measuring optical density (OD) of a culture.
DGI-TAUP301L cells were dispensed into 96-well plates on minimum medium containing 2% galactose to fully express the mutant protein, together with 10 μM candidate compound. All liquid handing steps were performed using a Janus Automated Workstation (Perkin Elmer). Plates were incubated for 2 days at 30° C. under shaking in a Liconic STX40 Automated Incubator. Growth and fluorescence were monitored with a Victor 3V microplate reader (PE). […]
(§1) DGI-TAUP301L cells were pre-grown on a mixture of 2% galactose until reaching early exponential phase (OD=1-2). […] Growth and fluorescence were monitored for 2 days at 30° C. under agitation. […]
as §1, §1, §1

Structure (SMILES): C[N+](C)(C)CCO [Choline, choline]
- reduction of ER stress (0.4 M choline): 35%

Structure (SMILES): C[S+](C)[O-] [DMSO]
- reduction of ER stress (2% DMSO): 35%

Structure (SMILES): O=C(/C=C/c1ccccc1)NC(NC(=S)Nc1cccc2cccnc12)C(Cl)(Cl)Cl (stereo not drawn) [salubrinal]
- reduction of ER stress signal (100 μM salubrinal): ~50%
